Read-outs that look alike come from different tables or passages of the source.
How the values were obtained:
TEM-1 β-lactamase = TEM-1 β-lactamase (Escherichia coli, UniProt P62593); assay: Cell-free β-lactamase inhibition study (nitrocefin hydrolysis); format: biochemical; settings: 10 min pre-incubation at 37° C., nitrocefin substrate
Protocol: (§1) Cell-Free-β-Lactamase Inhibition Study
(§2) Assays are performed with β-lactamases expressed in the pET system (Novagen, San Diego, Calif.) without signal peptides. They contain an N-terminal hexa-Histidine tag that is used for purification on Ni-NTA (Qiagen, Hilden, Germany). The compounds are prepared as 50 mM stocks in DMSO and diluted into buffer P1 (50 mM phosphate, pH 7) to a final concentration of 10% DMSO. All further dilutions are done in P2 (P1 with 10% DMSO). Enzyme and compound dilutions are pre-incubated for 10 min at 37° C. and the reaction is started with the addition of pre-warmed (37° C.) nitrocefin at a final concentration of […]. […] The initial velocity is determined and IC50 values are calculated using non-linear regression and sigmoidal dose response analysis with the PRISM 4.0 software (Graphpad Software Inc., San Diego, Calif.).

C. freundii 7023771 = assay: In-vitro synergy test, MIC by broth/agar dilution; format: cell-based
Protocol: (§3) Stock solutions of the test compounds and control antibiotics are prepared in distilled water according to the NCCLS guidelines (NCCLS (National Commitee for Clinical Laboratory Standards). 12(3). 2000. M7-A4). […] All drug weights are corrected for salt forms and refer to the pure drug substance.
(§4) All tested strains and clinical isolates are either purchased from the American Type Culture Collection (ATCC), kindly supplied by A. Georgopoulos (Vienna General Hospital, Vienna, Austria), and I. Chopra (Leeds, UK), collected from the SENTRY study (F. J. Schmitz, Minden, Germany) or from the Sandoz culture collection.
(§5) All strain identities are confirmed by BBL Crystal™ Identification Systems (Beckton Dickinson, Cockeysville, Md., USA). Stock cultures are prepared from broth cultures grown at 35° C. for 18-22 h without agitation and subsequent addition of 5% DMSO (v/v, final concentration) as cryoprotectant and stored frozen in liquid nitrogen.
(§6) Bacterial susceptibility, expressed as MIC, is determined by microbroth dilution technique and agar dilution technique as recommended by the approved standard reference recommendations of the NCCLS.
(§7) The inoculum is prepared by the direct colony suspension method as described by NCCLS. For this purpose the bacteria are grown on blood agar plates at 35° C. for 24 h. Subsequently 3-5 single colonies are suspended in 5 ml liquid medium. The bacteria are then incubated for 5 h to reach the logarithmic growth phase and subsequently diluted with medium or NaCl (0.86%) to reach a final living cell count equivalent to 10^8 CFU/ml. Then the bacterial suspension is diluted 1:10 and 1 μl (10^4 CFU; final inoculoum 10^5 CFU/ml) is transferred to the test medium containing the antibacterial substances by a multipoint inoculator (Dynatech, Chantilly, Va., USA). The plates are then incubated at 35° C. for 24 h. The MIC is determined optically and defined as the minimum inhibitory concentration [μg/ml] of antibiotic at which no visible bacterial growth occurs.

E. cloacae 83989 = assay: In-vitro synergy test, MIC by broth/agar dilution; format: cell-based
Protocol: as §3, §4, §5, §6, §7

[1] = tested on: K. pneumoniae ATCC 700603; assay: In-vitro synergy test, MIC by broth/agar dilution; format: cell-based
Protocol: as §3, §4, §5, §6, §7

Pharmacokinetics in mice = format: in vivo; settings: for AUC / Cmax: mouse, plasma
Protocol: The values of the PK parameters were calculated by standard noncompartmental analysis, using Kinetica 4.2 (InnaPhase). Plasma concentration values below the limit of quantification were taken as 0. The maximum plasma concentration (Cmax) and the time to reach Cmax were determined from observed data.

[2] = tested on: TEM-1 producing E. coli B269 (clinical isolate); format: in vivo; settings: s.c.; 0.5 mg/kg cefepime (0 and 3 h) + 20 mg/kg Example 49 (0, 1.5, 3, 4.5 h after infection)
Protocol: A sepsis model in female NMRI mice was employed using TEM-1 producing E. coli B269 (clinical isolate) as the infecting bacterial strain. In general, the final inoculum given in 0.3 ml per mouse intraperitoneally represented a 100% lethal concentration for systemic infections within 48 hours.
The subcutaneous treatment schedule for the antibiotic at various doses was simultaneous and 3 hours after infection.

SHV-1 β-lactamase = SHV-1 β-lactamase (Klebsiella pneumoniae, UniProt P0AD64); assay: Cell-free β-lactamase inhibition study (nitrocefin hydrolysis); format: biochemical; settings: SHV-1; 10 min pre-incubation at 37° C., nitrocefin substrate; read-out: IC50
Protocol: as §1, §2

[3] = MIC of cefepime with 17 μM Example 49
[4] = MIC of ceftazidime with 68 μM Example 49

Chain of TEM-1 β-lactamase (P62593 whole entry, looked up): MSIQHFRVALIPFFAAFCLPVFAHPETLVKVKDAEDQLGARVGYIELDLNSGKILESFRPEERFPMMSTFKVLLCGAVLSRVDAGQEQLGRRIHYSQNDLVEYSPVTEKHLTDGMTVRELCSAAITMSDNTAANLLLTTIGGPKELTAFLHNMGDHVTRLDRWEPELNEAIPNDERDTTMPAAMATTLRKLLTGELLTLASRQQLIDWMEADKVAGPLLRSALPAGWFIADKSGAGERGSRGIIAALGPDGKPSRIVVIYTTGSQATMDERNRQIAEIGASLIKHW
Chain of SHV-1 β-lactamase (P0AD64 whole entry, looked up): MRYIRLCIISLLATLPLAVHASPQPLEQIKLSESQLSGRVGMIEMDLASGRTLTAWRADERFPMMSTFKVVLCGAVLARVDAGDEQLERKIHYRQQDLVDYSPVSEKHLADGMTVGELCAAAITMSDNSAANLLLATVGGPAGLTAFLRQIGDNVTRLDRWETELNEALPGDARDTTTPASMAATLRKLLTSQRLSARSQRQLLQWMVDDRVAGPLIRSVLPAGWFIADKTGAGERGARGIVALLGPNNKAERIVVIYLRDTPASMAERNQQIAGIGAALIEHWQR

SMILES | IC50 (TEM-1 β-lactamase) [nM] | IC50 (SHV-1 β-lactamase) [nM] | further results
CC1CC(=C2O[C@@H]3CC(=O)N3C2C(=O)O)C(=O)O1 (single isomer, unassigned) [Example 49] | 1.8 |  | Cefepime MIC, +17 μM Example 49 (C. freundii 7023771; [3]): 0.4 µg/mL; Ceftazidime MIC, +68 μM Example 49 (C. freundii 7023771; [4]): 3.2 µg/mL; Cefepime MIC, +17 μM Example 49 (E. cloacae 83989; [3]): 0.8 µg/mL; Ceftazidime MIC, +68 μM Example 49 (E. cloacae 83989; [4]): 12.8 µg/mL; Amoxicillin MIC, +68 μM Example 49 ([1]; MIC of amoxicillin with 68 μM Example 49): 3.2 µg/mL; Cefepime MIC, +17 μM Example 49 [1, 3]: 0.2 µg/mL; Ceftazidime MIC, +68 μM Example 49 [1, 4]: 0.2 µg/mL; AUC (Pharmacokinetics in mice; oral 25 mg/kg): 1090 ng·h/mL; Cmax (Pharmacokinetics in mice; oral 25 mg/kg (cremophor EL/ethanol/glucose in saline), read-out: peak plasma concentration (Cmax)): 2220 ng/mL; AUC (Pharmacokinetics in mice; sc, subcutaneous 10 mg/kg): 2090 ng·h/mL; Cmax (Pharmacokinetics in mice; sc, subcutaneous 10 mg/kg (0.05 M NaPO4 buffer, pH 7.2), read-out: Cmax): 5600 ng/mL; Thalf (Pharmacokinetics in mice; oral 25 mg/kg): 18.90 min; time to reach Cmax (Pharmacokinetics in mice; oral 25 mg/kg): 15 min; Thalf (Pharmacokinetics in mice; subcutaneous 10 mg/kg): 12.27 min; time to reach Cmax (Pharmacokinetics in mice; subcutaneous 10 mg/kg): 5 min; survival, combination of cefepime and Example 49 [2]: survival of all animals
CC1(C)S[C@@H]2[C@H](NC(=O)[C@H](N)c3ccc(O)cc3)C(=O)N2[C@H]1C(=O)O [Amoxicillin, reference compound] |  |  | Amoxicillin MIC, alone ([1]; antibiotic alone): >25.6 µg/mL
CO/N=C(\C(=O)N[C@@H]1C(=O)N2C(C(=O)[O-])=C(C[N+]3(C)CCCC3)CS[C@H]12)c1csc(N)n1 [Cefepime, reference compound] |  |  | Cefepime MIC, alone (C. freundii 7023771; antibiotic alone): 0.8 µg/mL; Cefepime MIC, alone ([1]; antibiotic alone): 0.8 µg/mL
CC(C)(O/N=C(\C(=O)N[C@@H]1C(=O)N2C(C(=O)[O-])=C(C[n+]3ccccc3)CS[C@H]12)c1csc(N)n1)C(=O)O [Ceftazidime, reference compound] |  |  | Ceftazidime MIC, alone (C. freundii 7023771; antibiotic alone): >25.6 µg/mL; Ceftazidime MIC, alone (E. cloacae 83989; antibiotic alone): >25.6 µg/mL; Ceftazidime MIC, alone ([1]; antibiotic alone): >25.6 µg/mL
C=CCC(C(=O)O)=C1O[C@@H]2CC(=O)N2C1C(=O)OCc1ccccc1 (stereo partly drawn) [Example 24, (5R)-3-(1-Carboxy-but-3-enylidene)-7-oxo-4-oxa-1-aza-bicyclo[3.2.0]heptane-2-carboxylic acid benzyl ester] | 30.6 | 62.2 | 
O=C(O)C(C/C=C/c1ccccc1)=C1O[C@@H]2CC(=O)N2C1C(=O)OCc1ccccc1 (stereo partly drawn) [Example 26, (5R)-3-[1-Carboxy-4-phenyl-but-3-enylidene]-7-oxo-4-oxa-1-aza-bicyclo[3.2.0]heptane-2-carboxylic acid benzyl ester] | 9.2 | 36.3 | 
C=CCC(C(=O)O)=C1O[C@@H]2CC(=O)N2C1C(=O)OC (stereo partly drawn) [Example 32, (5R)-3-(1-Carboxy-but-3-enylidene)-7-oxo-4-oxa-1-aza-bicyclo[3.2.0]heptane-2-carboxylic acid methyl ester] | 122 | 339 | 
COC(=O)C1C(=C(C/C=C/c2ccccc2)C(=O)O)O[C@@H]2CC(=O)N12 (stereo partly drawn) [Example 34, (5R)-3-(1-Carboxy-4-phenyl-but-3-enylidene)-7-oxo-4-oxa-1-aza-bicyclo[3.2.0]heptane-2-carboxylic acid methyl ester] | 21.7 | 50.3 | 
CC(C)(C)C(=O)OCOC(=O)C1C(=C(C/C=C/c2ccccc2)C(=O)O)O[C@@H]2CC(=O)N12 (stereo partly drawn) [Example 37, (5R)-3-(1-Carboxy-4-phenyl-but-3-enylidene)-7-oxo-4-oxa-1-aza-bicyclo[3.2.0]heptane-2-carboxylic acid 2,2-dimethyl-propionyloxymethyl ester] | 44.2 | 141 | 
C=CC/C(CO)=C1\O[C@@H]2CC(=O)N2C1C(=O)OCc1ccccc1 (stereo partly drawn) [Example 38, (5R)-3-[1-Hydroxymethyl-but-3-en-(E)-ylidene]-7-oxo-4-oxa-1-aza-bicyclo[3.2.0]heptane-2-carboxylic acid benzyl ester] | 8020 | 6810 | 
C=CC/C(CO)=C1/O[C@@H]2CC(=O)N2C1C(=O)OCc1ccccc1 (stereo partly drawn) [Example 38a, (5R)-3-[1-Hydroxymethyl-but-3-en-(Z)-ylidene]-7-oxo-4-oxa-1-aza-bicyclo[3.2.0]heptane-2-carboxylic acid benzyl ester] | 1950 | 1710 | 
O=C(OCc1ccccc1)C1C(=C(CO)C/C=C/c2ccccc2)O[C@@H]2CC(=O)N12 (stereo partly drawn) [Example 39, (5R)-3-(1-Hydroxymethyl-4-phenyl-but-3-enylidene)-7-oxo-4-oxa-1-aza-bicyclo[3.2.0]heptane-2-carboxylic acid benzyl ester] | 4120 | 5610 | 
[N-]=[N+]=NCC1C/C(=C2\O[C@@H]3CC(=O)N3C2C(=O)OCc2ccccc2)C(=O)O1 (stereo partly drawn) [Example 48, (5R)-3-(5-Azidomethyl-2-oxo-dihydro-furan-3-ylidene)-7-oxo-4-oxa-1-aza-bicyclo[3.2.0]heptane-2-carboxylic acid benzyl ester] | 2.4 | 4.2 | 
CCCC(C(=O)O)=C1O[C@@H]2CC(=O)N2C1C(=O)O (stereo partly drawn) [Example 51, (5R)-3-(1-Carboxy-butylidene)-7-oxo-4-oxa-1-aza-bicyclo[3.2.0]heptane-2-carboxylic acid] | 254 | 436 | 
COC(=O)C1C(=C(CCCc2ccccc2)C(=O)O)O[C@@H]2CC(=O)N12 (stereo partly drawn) [Example 53, (5R)-3-(1-Carboxy-4-phenyl-butylidene)-7-oxo-4-oxa-1-aza-bicyclo[3.2.0]heptane-2-carboxylic acid methyl ester] | 72.8 | 219 | 
CCCC(C(=O)O)=C1O[C@@H]2CC(=O)N2C1C(=O)OC (stereo partly drawn) [Example 54, (5R)-3-(1-Carboxy-butylidene)-7-oxo-4-oxa-1-aza-bicyclo[3.2.0]heptane-2-carboxylic acid methyl ester] | 97 | 295 | 
COC(=O)C(CCCc1ccccc1)=C1O[C@@H]2CC(=O)N2C1C(=O)OC (stereo partly drawn) [Example 57, (5R)-3-(1-Methoxycarbonyl-4-phenyl-butylidene)-7-oxo-4-oxa-1-aza-bicyclo[3.2.0]heptane-2-carboxylic acid methyl ester] | 10.6 | 22.6 | 
O=C(O)C(CC=CCN(Cc1ccccc1)C(=O)OCc1ccccc1)=C1O[C@@H]2CC(=O)N2C1C(=O)OCc1ccccc1 (stereo partly drawn) [Example 58, (5R)-3-[5-(Benzyl-benzyloxycarbonyl-amino)-1-carboxy-pent-3-enylidene]-7-oxo-4-oxa-1-aza-bicyclo[3.2.0]heptane-2-carboxylic acid benzyl ester] | 1.4 | 0.6 | 
O=C(OCc1ccccc1)C1C(=C2COC(CI)C2)O[C@@H]2CC(=O)N12 (stereo partly drawn) [Example 59, (5R)-3-[5-Iodomethyl-dihydro-furan-3-ylidene]-7-oxo-4-oxa-1-aza-bicyclo[3.2.0]heptane-2-carboxylic acid benzyl ester] | 4390 | 3600 | 

— patent publication US9120808B2 (NABRIVA THERAPEUTICS AG, priority 2009, dated 2015)
